{
  "source": "patent US10471060B2",
  "about": "“Amino pyrimidine compounds useful as SSAO inhibitors” (Eli Lilly and Company, priority 2017, dated 2019)",
  "key": {"[1]": {"target": "T1, recombinant hSSAO (Homo sapiens, UniProt Q16853)", "T1 sequence (Q16853 1-763)": "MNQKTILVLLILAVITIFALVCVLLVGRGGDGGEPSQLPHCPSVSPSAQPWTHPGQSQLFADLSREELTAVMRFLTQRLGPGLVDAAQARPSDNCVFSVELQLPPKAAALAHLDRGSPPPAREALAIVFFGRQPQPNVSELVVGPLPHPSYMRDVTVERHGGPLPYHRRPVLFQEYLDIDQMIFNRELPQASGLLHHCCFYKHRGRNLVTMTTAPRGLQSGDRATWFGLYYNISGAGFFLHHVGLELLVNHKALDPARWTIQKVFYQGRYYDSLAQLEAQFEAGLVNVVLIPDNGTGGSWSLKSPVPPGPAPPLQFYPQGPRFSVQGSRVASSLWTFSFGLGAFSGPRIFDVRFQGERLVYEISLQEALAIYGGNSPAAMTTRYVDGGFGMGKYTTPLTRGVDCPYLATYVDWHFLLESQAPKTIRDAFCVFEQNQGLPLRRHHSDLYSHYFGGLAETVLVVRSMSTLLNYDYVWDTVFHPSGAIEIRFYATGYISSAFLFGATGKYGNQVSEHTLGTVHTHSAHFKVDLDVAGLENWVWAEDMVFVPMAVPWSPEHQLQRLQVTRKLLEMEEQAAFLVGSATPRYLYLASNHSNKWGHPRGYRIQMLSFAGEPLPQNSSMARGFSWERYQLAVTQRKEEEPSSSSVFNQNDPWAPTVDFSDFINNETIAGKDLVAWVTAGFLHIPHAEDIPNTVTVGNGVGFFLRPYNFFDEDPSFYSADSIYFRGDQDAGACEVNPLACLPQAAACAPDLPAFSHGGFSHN", "test": "SSAO/VAP-1 in vitro amine oxidase activity, MAO-Glo assay", "type": "biochemical", "settings": "mean±standard deviation, n=5; substrate 10 μM, pH 7.4; read-out: hSSAO inhibition IC50", "procedure": "Amine oxidase activity of recombinant hSSAO, hMAOa, and hMAOb isoforms are measured using the MAO-Glo™ assay kit from Promega (V1402). Test compounds (with DMSO as vehicle, 0.5% v/v for SSAO) and the enzyme are incubated for 10 mins at room temperature before the addition of the luminogenic substrate. The substrate concentration is 10 μM for human recombinant SSAO. The assays are conducted in a pH 7.4 buffer (50 mM HEPES, 120 mM NaCl, 5 mM KCl, 2 mM CaCl2, 1.4 mM MgCl2, 0.001% Tween-20) in a well-plate. Oxidation of the substrate is conducted for 2 hrs before the addition of detecting reagent according the manufacture's protocol. The IC50 value of the tested compounds is calculated by fitting the dose response curve using a 4-parameter non-linear regression routine."}, "[2]": {"system": "SSAO", "test": "SSAO Target Engagement: residual SSAO activity in rat plasma and liver after dosing", "type": "in vivo", "settings": "for SSAO Activity (%) Liver 24 hours / SSAO Activity (%) Plasma 2 hours / SSAO Activity (%) Plasma 24 hours: mean ± SEM, n = 6", "procedure": "The SSAO activity in rat plasma and liver tissues are measured using the MAO-Glo™ assay kit from Promega (V1402). The residual SSAO activity in rats after compound treatment is estimated by measuring the total amine oxidase activity in plasma or liver lysates that are insensitive to the presence of the MAO inhibitor Clogyline and Pargyline. Rats are administered the compound of Example 1 at the doses of 15, 3, 0.6, 0.12, 0.025, 0.005 mg/kg. The control group is administered with the same volume (2 ml/kg) of the dosing vehicle (hydroxyethyl cellulose 1% w/v, 0.25% Tween 80). Plasma and liver at 2 or 24 hrs post compound treatment are harvested and stored at −78° C. until analysis. Tissue lysates are prepared by homogenization in a lysis buffer (20 mM HEPES, pH 7.4, 150 mM NaCl, 1 mM EDTA, 1 mM EGTA, 1% Triton X-100 and 1× Roche Complete protease inhibitor tablet). Tissue particles are removed by centrifugation at 12,000 rpm at 4° C. for 30 min. 40 μl of plasma or liver lysates is incubated with Clogyline (10 μM) and Pargyline (10 μM) for 20 min. at room temperature before the addition of the luminogenic substrate (50 μM) for 60 min. The product generated is quantified according to the manufacture's procedure. The fraction of activity that is insensitive to the presence of the MAO inhibitors is used as the surrogate for the residual SSAO activity. The compound of Example 1 is evaluated in the protocol essentially as described above administered at various doses."}},
  "data": [
    {"smiles": "CN1CCC2(CCN(c3ncc(OC/C(=C/F)CN)cn3)CC2)C1=O.Cl.Cl", "note": "[Example 1, 8-[5-[(E)-2-(Aminomethyl)-3-fluoro-allyloxy]pyrimidin-2-yl]-2-methyl-2,8-diazaspiro[4.5]decan-1-one Dihydrochloride]", "values": [
      {"measurement": "IC50", "setting": "[1]", "result": "19.4 ± 5.68", "unit": "nM"},
      {"measurement": "SSAO Activity (%) Liver 24 hours", "setting": "[2]; dose 0.005 mg/kg", "result": "79 ± 13", "unit": "%"},
      {"measurement": "SSAO Activity (%) Plasma 2 hours", "setting": "[2]; dose 0.005 mg/kg", "result": "76 ± 3", "unit": "%"},
      {"measurement": "SSAO Activity (%) Plasma 24 hours", "setting": "[2]; dose 0.005 mg/kg", "result": "81 ± 4", "unit": "%"},
      {"measurement": "SSAO Activity (%) Liver 24 hours", "setting": "[2]; dose 0.025 mg/kg", "result": "59 ± 14", "unit": "%"},
      {"measurement": "SSAO Activity (%) Plasma 2 hours", "setting": "[2]; dose 0.025 mg/kg", "result": "35 ± 4", "unit": "%"},
      {"measurement": "SSAO Activity (%) Plasma 24 hours", "setting": "[2]; dose 0.025 mg/kg", "result": "67 ± 10", "unit": "%"},
      {"measurement": "SSAO Activity (%) Liver 24 hours", "setting": "[2]; dose 0.12 mg/kg", "result": "28 ± 5", "unit": "%"},
      {"measurement": "SSAO Activity (%) Plasma 2 hours", "setting": "[2]; dose 0.12 mg/kg", "result": "17 ± 1", "unit": "%"},
      {"measurement": "SSAO Activity (%) Plasma 24 hours", "setting": "[2]; dose 0.12 mg/kg", "result": "39 ± 4", "unit": "%"},
      {"measurement": "SSAO Activity (%) Liver 24 hours", "setting": "[2]; dose 0.6 mg/kg", "result": "24 ± 6", "unit": "%"},
      {"measurement": "SSAO Activity (%) Plasma 2 hours", "setting": "[2]; dose 0.6 mg/kg", "result": "13.4 ± 2.4", "unit": "%"},
      {"measurement": "SSAO Activity (%) Plasma 24 hours", "setting": "[2]; dose 0.6 mg/kg", "result": "31 ± 3", "unit": "%"},
      {"measurement": "SSAO Activity (%) Liver 24 hours", "setting": "[2]; dose 3 mg/kg", "result": "6 ± 4", "unit": "%"},
      {"measurement": "SSAO Activity (%) Plasma 2 hours", "setting": "[2]; dose 3 mg/kg", "result": "5.9 ± 1.6", "unit": "%"},
      {"measurement": "SSAO Activity (%) Plasma 24 hours", "setting": "[2]; dose 3 mg/kg", "result": "19 ± 2", "unit": "%"},
      {"measurement": "SSAO Activity (%) Liver 24 hours", "setting": "[2]; dose 15 mg/kg", "result": "−0.63 ± 1.1", "unit": "%"},
      {"measurement": "SSAO Activity (%) Plasma 2 hours", "setting": "[2]; dose 15 mg/kg", "result": "3.1 ± 0.9", "unit": "%"},
      {"measurement": "SSAO Activity (%) Plasma 24 hours", "setting": "[2]; dose 15 mg/kg", "result": "14 ± 1", "unit": "%"},
      {"measurement": "inhibition of SSAO activity in rat plasma and liver tissue (in words)", "setting": "[2]; doses 0.005 to 15 mg/kg", "result": "dose-dependently inhibits SSAO activity"}
    ]}
  ]
}
